Laboratory results as given in ChEMBL document CHEMBL3856245, “New labdane diterpenoids from Croton laui and their anti-inflammatory activities” (Bioorg Med Chem Lett, 2016).

Assays:
[1] = Cytotoxicity against mouse RAW264.7 cells assessed as reduction in cell viability after 48 hrs by MTT assay; type: toxicity
[2] = Antiinflammatory activity in mouse RAW264.7 cells assessed as inhibition of LPS-induced NO production after 24 hrs in presence of LPS by Griess reagent based assay; type: functional, cell-based; settings: RAW264.7, 24 h
RAW264.7 = assay: Selectivity index, ratio of CC50 for mouse RAW264.7 cells to antiinflammatory IC50 for mouse RAW264.7 cells; type: functional

| Structure (SMILES) | CC50 at 48 h [1] [µM] | IC50 [2] [µM] | Ratio CC50/IC50 (RAW264.7) |
| --- | --- | --- | --- |
| CC1=CC(=O)O[C@@]12C[C@@H]1[C@@]3(C)CCCC(C)(C)[C@@H]3C[C@H](O)[C@@]1(C)O2 | > 100 | 44.6 | >2.2 |
| C/C(C=O)=C\C[C@H]1[C@](C)(O)[C@@H](O)C[C@H]2C(C)(C)CCC[C@@]21C | > 100 | 93 | >1.1 |
| C/C(=C\CO)[C@H]1C[C@@H]2[C@@]3(C)CCCC(C)(C)[C@@H]3C[C@H](O)[C@@]2(C)O1 | > 100 | 42.7 | >2.3 |
| C=C/C(C)=C/C[C@H]1[C@](C)(O)[C@@H](O)C[C@H]2C(C)(C)CCC[C@@]21C | 94.5 | 49.3 | 1.9 |
| CC1=CC(=O)O[C@]12C[C@@H]1[C@@]3(C)CCCC(C)(C)[C@@H]3C[C@H](O)[C@@]1(C)O2 | > 100 | 49.6 | >2 |
| COc1ccc2c(c1)c(CC(=O)O)c(C)n2C(=O)c1ccc(Cl)cc1 [INDOMETHACIN] | > 200 | 16.5 | >12.1 |
